Counter-ions that a name gives are not always drawn.
COc1ccc(CNc2cc(C(O)CNC(C)(C)CCn3cnc4ccccc43)ccc2O)cc1 (stereo not shown) (as salt: acetate) [Example 3, 1-[3-(4-methoxybenzylamino)-4-hydroxyphenyl]-2-[4-(1-benzimidazolyl)-2-methyl-2-butylamino]ethanol]
melting point: 154 to 155 °C

COc1ccc(CC(C)(C)NCC(O)c2ccc(O)c3c2OCC(=O)N3)cc1 (stereo not shown) (as salt: hydrochloride) [Example 4, 1-[2H-5-hydroxy-3-oxo-4H-1,4-benzoxazin-8-yl]-2-[3-(4-methoxyphenyl)-2-methyl-2-propylamino]ethanol]
melting point: 202 to 205 °C

COc1ccc(-c2ncn(CCC(C)(C)NCC(O)c3ccc(O)c4c3OCC(=O)N4)n2)cc1 (stereo not shown) (as salt: hydrochloride) [Example 5, 1-[2H-5-hydroxy-3-oxo-4H-1,4-benzoxazin-8-yl]-2-{4-[3-(4-methoxyphenyl)-1,2,4-triazol-3-yl]-2-methyl-2-butylamino}ethanol]
melting point: 175 to 179 °C

CCCCOc1ccc(CC(C)(C)NCC(O)c2ccc(O)c3c2OCC(=O)N3)cc1 (stereo not shown) (as salt: methanesulfonate) [Example 2, 1-[2H-5-hydroxy-3-oxo-4H-1,4-benzoxazin-8-yl]-2-[3-(4-n-butyloxyphenyl)-2-methyl-2-propylamino]ethanol]
melting point: 189 to 190 °C
